According to US7241784B2, “Carboxylic acid derivative and a pharmaceutical composition containing the derivative as active ingredient” (Ono Pharmaceutical Co., Ltd., priority 1998, dated 2007):

Columns and labels:
human PPARγ = target: T1, human PPARγ (Homo sapiens, UniProt P37231); test: Luciferase assay using human PPARγ (Gal4-PPARγ LBD chimeric receptor, CV-1 cells); type: cell-based; conditions: PPARγ agonistic activity, compound 10 μM, luciferase activity of troglitazone (10 μM) defined as 1.0, 42 hours
T1 construct: expressed in transfected cells; host or cells: CV-1 cells
T1 sequence (P37231 204-505): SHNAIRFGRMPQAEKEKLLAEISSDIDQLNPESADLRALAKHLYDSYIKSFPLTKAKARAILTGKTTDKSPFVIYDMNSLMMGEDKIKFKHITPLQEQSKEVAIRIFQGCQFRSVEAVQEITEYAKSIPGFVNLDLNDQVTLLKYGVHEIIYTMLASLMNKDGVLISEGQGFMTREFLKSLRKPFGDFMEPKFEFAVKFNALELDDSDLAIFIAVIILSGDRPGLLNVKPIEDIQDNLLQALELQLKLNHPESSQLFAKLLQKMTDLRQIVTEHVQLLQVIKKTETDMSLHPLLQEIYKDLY

human PPARα = target: T2, human PPARα (Homo sapiens, UniProt Q07869); test: Luciferase assay using human PPARα (Gal4-PPARα LBD chimeric receptor, CV-1 cells); type: cell-based; conditions: PPARα agonistic activity, compound 10 μM, luciferase activity of carbacyclin (10 μM) defined as 1.0, 42 hours
T2 construct: expressed in transfected cells; host or cells: CV-1 cells
T2 sequence (Q07869 167-468): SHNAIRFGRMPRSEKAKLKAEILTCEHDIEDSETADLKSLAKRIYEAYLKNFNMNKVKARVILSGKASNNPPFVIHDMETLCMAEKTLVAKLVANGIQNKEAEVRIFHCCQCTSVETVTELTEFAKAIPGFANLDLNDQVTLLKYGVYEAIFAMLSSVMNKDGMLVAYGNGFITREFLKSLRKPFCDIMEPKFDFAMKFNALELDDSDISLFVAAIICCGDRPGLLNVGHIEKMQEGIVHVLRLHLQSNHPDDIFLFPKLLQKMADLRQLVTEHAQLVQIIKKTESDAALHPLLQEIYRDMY

KKAy/Ta mice = test: Hypoglycemic and hypolipidemic effects in KKAy/Ta mice; type: in vivo; conditions: male KKAy/Ta mice, food mixture containing 0.03% (w/w) compound for two days, 5 mice per group; for TG level on Day 3: control 523 ± 144; for glycemic level on Day 3: control 638 ± 63
Description: Hypoglycemic and Hypolipidemic Effects
Male, 7-weeks old KKAy/Ta mice weighed from 35 to 40 g (five mice per group) were pre-breaded for approximately one week and acclimatized for three days on milled diet. On the first day of the experiment (Day 0), mice were divided into some groups according to weight, plasma glucose and triglyceride (TG) levels to minimize the differences among groups. From the next day for two days they were given compounds by food mixture containing 0.03% (w/w) of the compound of the present invention or by milled diet only. At 13:00 of the third day, blood samples were collected to measure glucose and TG levels. Additionally, there was no significant difference in the food intake between control group (milled diet only) and compounds-treated group (milled diet containing 0.03% compounds).

SD rats = test: Hypocholesterolemic and hypolipidemic effects in SD rats given hypercholesterolemic food; type: in vivo; conditions: male SD rats, oral administration in 0.5% CMC, then hypercholesterolemic food, blood at 9:00 of the next day, 5 rats per group; for TC level: control 154 ± 8; for TG level: control 158 ± 19; for NEFA levle: control 537 ± 69
Description: Hypocholesterolemic and Hypolipidemic Effects
Male, six-weeks old SD rats (five rats per group) were left to take milled diet and water ad libitum and were acclimatized for 1 week.
At 9:00 on the first day of the experiment (Day 0), blood sampling was done from tail vein. The rats were divided into some groups according to body weight, triglyceride (TG), non-esterified fatty acid (NEFA) and total cholesterol (TC) levels to minimize differences of the parameters among the groups. At 17:00 of the day, the compound of the present invention dissolved in 0.5% aqueous solution of carboxymethylcellulose (CMC) was orally administered, and thereafter, with hypercholesterolemic food (5.5% peanut oil, 1.5% cholesterol and 0.5% cholic acid were mixed with milled CRF-1 diet, Charles River Inc.) was given to the rats.
At 9:00 of the next day, blood sampling was done from tail vein. The lipid levels in blood (TG, NEFA and TC levels) after administration of the compounds of the present invention were measured. There was no significant difference of the food intake between the control group (provided only 0.5% CMC) and the group treated with the compounds of the present invention.

## Cc1oc(-c2ccccc2)nc1CCOCC#CCSCC(=O)O [Example 5 (2), 2-(4-(2-(5-methyl-2-phenyloxazol-4-yl)ethoxy)-2-butynylthio)acetic acid]
Human PPARγ
  Relative Activity to a positive control compound (troglitazone = 1): 2.6
Human PPARα
  Relative Activity to a positive control compound (carbacyclin = 1): 2.9

## Cc1oc(-c2ccccc2)nc1CCOCCCCSCC(=O)O [Example 5 (8), 2-(4-(2-(5-methyl-2-phenyloxazol-4-yl)ethoxy)butylthio)acetic acid]
Human PPARγ
  Relative Activity to a positive control compound (troglitazone = 1): 2.3
Human PPARα
  Relative Activity to a positive control compound (carbacyclin = 1): 2.2

## Cc1ccc(-c2nc(CCOCC#CCSCC(=O)O)c(C)o2)cc1 [Example 5 (10), 2-(4-(2-(5-methyl-2-(4-methylphenyl)oxazol-4-yl)ethoxy)-2-butynylthio)acetic acid]
KKAy/Ta mice
  TG level on Day 3: 111 ± 38 mg/dL
  glycemic level on Day 3: 339 ± 74 mg/dL
SD rats
  TC level: 88 ± 6 mg/dL
  TG level: 95 ± 17 mg/dL
  NEFA levle: 334 ± 55 μEq/l
Human PPARγ
  Relative Activity to a positive control compound (troglitazone = 1): 2.7
Human PPARα
  Relative Activity to a positive control compound (carbacyclin = 1): 1.5

## Cc1oc(-c2ccc3c(c2)OCO3)nc1CCOCC#CCSCC(=O)O [Example 5 (11), 2-(4-(2-(5-methyl-2-(1,3-dioxaindan-5-yl)oxazol-4-yl)ethoxy)-2-butynylthio)acetic acid]
KKAy/Ta mice
  TG level on Day 3: 140 ± 75 mg/dL
  glycemic level on Day 3: 306 ± 72 mg/dL
SD rats
  TC level: 91 ± 6 mg/dL
  TG level: 90 ± 14 mg/dL
  NEFA levle: 227 ± 17 μEq/l
Human PPARγ
  Relative Activity to a positive control compound (troglitazone = 1): 2.3
Human PPARα
  Relative Activity to a positive control compound (carbacyclin = 1): 1.7
